# Test results: PMC9421654, “Discovery of Substituted Di(pyridin-2-yl)-1,2,4-thiadiazol-5-amines as Novel Macrofilaricidal Compounds for the Treatment of Human Filarial Infections” (Journal of Medicinal Chemistry, 2022)
# Where two headings read alike, the source gives them in different places.
# What was measured:
# [1] = Liver S9 metabolic stability assay, human; type: in vitro ADME; settings: 3 μM, 60 min
# Method: (§1) Liver S9 Metabolic Stability Assay: Incubations were performed at 37 °C in a Dubnoff Shaking water bath using 2 mL 96-well incubation plates. Rat and human S9 protein concentrations were 0.75 mg/ml and 1.2 mg/ml, respectively. The final concentrations of NADPH, UDPGA, and GSH were 1, 0.5, and 2.5 mM, and the final concentration of PAPS was 0.05 mg/ml. Substrate concentrations were 3µM, incubation time was 60 minutes, and all tests were done in triplicate. The incubation was conducted in 200 mM Tris buffer containing 2 mM magnesium chloride, pH=7.4 and the total incubation volume was 0.5 ml. Samples were analysed via LC-MS/MS and reported as percentage remaining after incubation for 60 minutes. […]
# [2] = Kinetic solubility measurement; type: physicochemical
# Method: Kinetic Solubility Measurement: The standard kinetic solubility assay runs on […] concentration range using 10 mM DMSO stock solutions for plating. Single point calibration assay runs in duplicates. Concentration of standards: […] DMSO solutions prepared by diluting 10 mM stock, solution with DMSO. Concentration of samples: 200 µM, 4 µl 10 mM DMSO stock solution diluted with the appropriate buffer to […]. DMSO content:
# 2%. Buffers: pH=7.4 (0.1M Potassium phosphate buffer, diluted from Sigma 1M P3619-1GA to 0.1 M with MilliQ water), pH=2.2 (0.1M- NaCl pH adjusted with 0.1N HCL), pH=6.8 (0.1M - KH2PO4/K2HPO4), pH=5 (4 .04g of NaOH (Pellets), 8.65g of Glacial Acetic Acid, 11.874g of NaCl. In in 1 liter water. Adjusted to pH to 5 with either 1N NaOH or 1N HCl). The controls were plated from the standard 10 mM DMSO stock and run on the standard concentration (200µM) range of the assay. Incubation time: 24 hours shaking at […] in Millipore Multiscreen HTS filter plate for Aqueous Solubility Assay (MSSLBPC50), on room temperature.
# After incubation time filtration with positive pressure manifold was performed. […]
# [3] = target: T1, hERG potassium channels (KCNH2, expressed in HEK293 cells) (Homo sapiens, UniProt Q12809); test: hERG inhibition; type: cell-based
# T1 construct: expressed in transfected cells
# T1 sequence (Q12809 whole entry): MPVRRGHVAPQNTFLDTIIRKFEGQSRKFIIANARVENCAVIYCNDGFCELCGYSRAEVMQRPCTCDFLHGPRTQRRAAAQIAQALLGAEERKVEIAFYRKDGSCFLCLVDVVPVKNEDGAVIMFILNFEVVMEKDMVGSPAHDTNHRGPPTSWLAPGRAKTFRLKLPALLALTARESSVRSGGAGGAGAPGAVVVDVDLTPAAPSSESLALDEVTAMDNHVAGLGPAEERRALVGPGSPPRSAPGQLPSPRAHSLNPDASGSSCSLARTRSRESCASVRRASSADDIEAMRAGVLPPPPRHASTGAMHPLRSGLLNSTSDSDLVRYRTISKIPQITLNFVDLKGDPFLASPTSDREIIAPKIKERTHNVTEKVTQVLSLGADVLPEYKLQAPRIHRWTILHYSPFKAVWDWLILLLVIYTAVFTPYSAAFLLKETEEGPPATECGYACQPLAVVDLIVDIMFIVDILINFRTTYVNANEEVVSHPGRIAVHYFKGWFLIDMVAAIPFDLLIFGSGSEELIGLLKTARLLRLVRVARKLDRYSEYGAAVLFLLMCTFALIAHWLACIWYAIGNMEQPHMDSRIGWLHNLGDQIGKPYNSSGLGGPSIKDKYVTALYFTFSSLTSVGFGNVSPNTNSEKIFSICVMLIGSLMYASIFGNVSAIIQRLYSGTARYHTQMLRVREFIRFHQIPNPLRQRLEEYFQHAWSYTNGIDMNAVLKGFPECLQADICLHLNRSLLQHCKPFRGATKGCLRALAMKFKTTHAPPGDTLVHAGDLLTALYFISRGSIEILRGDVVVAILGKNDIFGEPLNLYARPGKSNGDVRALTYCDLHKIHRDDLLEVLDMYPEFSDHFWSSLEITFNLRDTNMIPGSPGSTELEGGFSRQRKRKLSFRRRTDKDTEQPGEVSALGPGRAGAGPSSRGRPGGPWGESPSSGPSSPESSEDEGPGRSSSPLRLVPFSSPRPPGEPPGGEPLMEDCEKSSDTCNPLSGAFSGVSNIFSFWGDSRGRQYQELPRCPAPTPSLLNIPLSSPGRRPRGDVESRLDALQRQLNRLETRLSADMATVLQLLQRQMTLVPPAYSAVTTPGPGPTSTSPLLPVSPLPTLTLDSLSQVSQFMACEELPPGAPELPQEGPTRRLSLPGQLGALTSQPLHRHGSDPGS
# [4] = Liver S9 metabolic stability assay, rat; type: in vitro ADME; settings: 3 μM, 60 min
# Method: as §1
# [5] = LogD measurement (octanol-water); type: physicochemical
# Method: LogD Measurement: Measurement of octanol-water distribution coefficient of samples using a […]
# stock solutions for plating. Aqueous Phase: 100mM Buffer, pH=7.4 (0.1M Potassium phosphate buffer, diluted from Sigma 1M P3619-1GA to 0.1 M with MilliQ water), pH=2.2 (0.1M- NaCl pH adjusted with 0.1N HCL), pH=6.8 (0.1M - KH2PO4/K2HPO4), pH=5 (4 .04g of NaOH (Pellets), 8.65g of Glacial Acetic Acid, 11.874g of NaCl. In in 1 liter water. Adjusted to pH to 5 with either 1N NaOH or 1N HCl); Organic Phase: 1-Octanol (O021). Sample Concentration:
# 1000uM, […] 10 mM DMSO stock solution diluted in […] of organic Phase and […] of aqueous Phase. DMSO content: 10%. The controls were plated from the standard 10 mM DMSO stock and run on the standard concentration ([…]) range of the assay. Incubation time:
# Sonication for 30 minutes followed by 24 hours shaking at 750 rpm in 96 deep well plate (VWR
# [6] = system: O. gutturosa adult male worms; test: O. gutturosa adult worm ex vivo assay, motility; type: cell-based, Onchocerca gutturosa; settings: Onchocerca gutturosa
# Method: (§2) Activity against O. gutturosa adult male worms was determined using reported procedures.[7] The EC50 values were calculated using Microsoft Office Excel (2010) data analysis software. The tested compound is considered active when a motility reduction of ≥50% is observed by comparison to the untreated controls. O. gutturosa adult male worms were obtained postmortem from freshly slaughtered cattle. The worms were dissected from the nuchal ligament connective tissues of naturally infected cattle in Gambia, West Africa; the material was purchased from the International Trypanotolerance Centre, Banjul, from local butchers for use in this study. The adult worms were transferred individually to each well of a sterile 24-well (2 mL) plate (Thermo Fisher Scientific, UK) and maintained for at least 24 h in culture before use. The medium used was a minimum essential medium (MEM) with Earl’s salts and L-glutamine (Life Technologies Ltd., UK) supplemented with 10% heat inactivated newborn calf serum (Life Technologies Ltd., UK), 200 units/mL penicillin, 200 μg/mL streptomycin, and 0.5 μg/mL amphotericin B (Life Technologies Ltd., UK). Only normally active worms were used for the test, and all assays were conducted at 37 °C and 5% CO2. The positive control drug used was Immiticide (melarsomine dihydrochloride, Merial, USA). Known amounts of compounds were solubilized in 1 mL of DMSO. All stock solutions were allowed to stand at room temperature prior to use. The test items (four worms/drug concentration) were compared to untreated controls (six worms) and the positive control (two worms/drug concentration). Drug efficacy was assessed by the measurement of mean worm motility scores on a scale of 0 (immotile) to 10 (maximum) every 24 h, terminating at 120 h, using an Olympus inverted microscope. The results are reported as a percentage of the maximum score obtainable (100%) by calculating the motility index scores. The test drug is considered active when a motility reduction of ≥50% is observed by comparison to the untreated controls. […] In addition, biochemical evaluation of worm viability was assessed using MTT/formazan colorimetry. The MTT assay was carried out after the last motility reading (120 h). Single intact worms were placed in each well of a 48-well plate (Thermo Fisher Scientific, UK) containing 0.5 mL of 0.5 mg/mL MTT (Sigma, UK) in PBS solution and then incubated for 30 min at 37 °C. The worms were removed, blotted carefully, and individually transferred to separate wells of a 96-well microtiter plate, each containing 200 μL of DMSO to solubilize the formazan. After 1 h, the plate was gently agitated to disperse the color evenly and the absorbance value (optical density, OD) of the resulting formazan solution was determined at 490 nm using an absorbance microplate reader (Biotek ELx800, Thermo Fisher Scientific, UK). The results are expressed as the mean OD per drug concentration. Inhibition of formazan formation is correlated with worm damage or death.
# Data S1. Onchocerca gutturosa adult male worms EC 50 Curves
# Plotted using Graph Pad Prism 7.03, least square original fit, sigmoidal, 4PL
# The measurement of mean worm motility every 24 h, terminating at 120 h, serial 1 in 4 drug dilutions to find
# activity endpoint and produce EC50 values (geomean, n=2) for motility reduction. (4 worms per drug […]
# [7] = system: O. gutturosa adult male worms; test: O. gutturosa adult worm ex vivo assay, MTT/formazan viability; type: cell-based, Onchocerca gutturosa; settings: supplement, SD in brackets in the PDF table, read-out: O. gutturosa EC50 (uM) MTT viability inhibition
# Method: as §2
# THLE-2 cells = test: THLE-2 cytotoxicity assay (ATP); settings: Homo sapiens, THLE-2, read-out: THLE IC50
# Method: In vitro cytotoxicity of select compounds was tested in a “normal” proliferating transformed human liver epithelial (THLE-2) cell line.[35] Compounds were incubated in THLE-2 cells for 24 and 72 h, and adenosine triphosphate (ATP) levels were used as an indicator of cell viability.
# THLE-2 Cytotoxicity Assay: THLE-2 cells (ATCC, catalog #CRL-2706) were plated in LHC-8 Media (Invitrogen, catalog #12679015) supplemented with fetal bovine serum (GE, catalog #SH30088.03), 70 ng/mL phosphoethanolamine (Sigma, catalog #P0503), 5 ng/mL EGF (Sigma, catalog #E9644), 1X penicillin/streptomycin (Gibco, catalog #15140148), and 1X glutamine (Invitrogen, catalog #25030024) in 384-well clear-bottom, black walled plates at a density of 3750 cells/well (15μL/well). After plating, cells were incubated overnight at 37°C in an incubator with 5% CO2 and 90% humidity. Compounds were first serially diluted in dimethyl sulfoxide then diluted in LHC-8 media growth media to 2X concentration. Cells were dosed with 15μL of each dose for final concentrations between 0.01 – 300 μM. Cells were incubated with compounds for 24 or 72 hours. Cytotoxicity was determined with Cell Titer Glo Luminescent ATP Assay (Promega, catalog #G7573) according to the manufacturer’s instructions. Tamoxifen (Sigma, catalog #BC9353476) was used as a positive control. levels at each dose were normalized to that of cells dosed with dimethyl sulfoxide vehicle alone and IC50 values were calculated from non-linear regression fits of dose-response curves plotted
# P-gp (MDR1) = target: T2, P-gp (MDR1) (Homo sapiens, UniProt P08183); test: MDCK/MDR1 permeability and efflux; type: in vitro ADME; settings: dog
# T2 construct: expressed in transfected cells; host or cells: MDCK (Madin Darby canine kidney) cells
# T2 sequence (P08183 whole entry): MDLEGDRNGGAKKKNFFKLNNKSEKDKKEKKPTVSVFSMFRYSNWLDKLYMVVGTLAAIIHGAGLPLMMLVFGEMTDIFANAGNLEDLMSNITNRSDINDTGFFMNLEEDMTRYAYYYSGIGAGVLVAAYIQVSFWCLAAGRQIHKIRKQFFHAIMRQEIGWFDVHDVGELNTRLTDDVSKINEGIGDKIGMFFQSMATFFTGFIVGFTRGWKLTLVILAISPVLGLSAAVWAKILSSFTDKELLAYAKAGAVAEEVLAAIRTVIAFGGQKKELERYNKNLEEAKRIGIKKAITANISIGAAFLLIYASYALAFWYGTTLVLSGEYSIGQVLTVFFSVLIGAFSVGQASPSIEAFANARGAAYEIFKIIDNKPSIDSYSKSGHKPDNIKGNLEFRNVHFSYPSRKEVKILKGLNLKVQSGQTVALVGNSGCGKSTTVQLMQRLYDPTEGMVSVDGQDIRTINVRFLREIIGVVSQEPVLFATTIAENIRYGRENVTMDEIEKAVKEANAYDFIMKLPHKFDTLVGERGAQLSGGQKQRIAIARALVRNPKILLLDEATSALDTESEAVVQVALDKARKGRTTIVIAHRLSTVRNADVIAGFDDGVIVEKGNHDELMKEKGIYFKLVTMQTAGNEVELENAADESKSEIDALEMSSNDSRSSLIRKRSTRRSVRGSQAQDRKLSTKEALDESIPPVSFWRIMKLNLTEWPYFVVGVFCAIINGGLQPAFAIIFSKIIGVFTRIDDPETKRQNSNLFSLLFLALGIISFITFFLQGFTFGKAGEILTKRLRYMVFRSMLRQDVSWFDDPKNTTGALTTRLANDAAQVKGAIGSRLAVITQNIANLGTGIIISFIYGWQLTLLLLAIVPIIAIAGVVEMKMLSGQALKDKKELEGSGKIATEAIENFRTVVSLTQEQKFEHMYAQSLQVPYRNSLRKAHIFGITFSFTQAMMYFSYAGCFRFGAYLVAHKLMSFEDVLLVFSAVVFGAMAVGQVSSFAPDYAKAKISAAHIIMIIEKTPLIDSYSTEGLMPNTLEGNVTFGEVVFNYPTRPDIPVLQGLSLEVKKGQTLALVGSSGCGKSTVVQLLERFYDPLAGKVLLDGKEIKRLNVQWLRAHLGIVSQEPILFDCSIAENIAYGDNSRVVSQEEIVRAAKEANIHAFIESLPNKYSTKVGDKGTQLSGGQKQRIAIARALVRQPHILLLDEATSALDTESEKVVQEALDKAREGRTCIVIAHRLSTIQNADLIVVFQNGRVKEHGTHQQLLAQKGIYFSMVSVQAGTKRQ
# Excerpt: Our approach was to target compounds with efflux ratio (ER) >2.5 in the MDCK cell line transfected with MDR1 (multidrug resistance-1 transfected Madin Darby canine kidney cell line). […] Our goal was to impart structural elements designed to impart Pgp recognition.
# [8] = supplement, read-out: measured logD
# [9] = read-out: O. gutturosa EC50 μM (SD), ex vivo adult worm motility reduction, SD in brackets
# [10] = read-out: O. gutturosa EC50 (uM) motility inhibition, supplement, SD in brackets in the PDF table
SMILES,Human S9 metabolic stability [1] [% remaining],solubility kinetic at 24 h ([2]; 10 mM DMSO stock solutions) [µM],IC50 ([3]; supplement) [nM],Rat S9 metabolic stability [4] [% remaining],"logD at 24 h [5, 8]","EC50 [6, 9] [µM]","EC50 [6, 10] [µM]","EC50 ([6]; read-out: O. gutturosa EC50, adult worm motility, bound stated) [µM]",EC50 ([7]; Onchocerca gutturosa) [µM],"logD at 24 h ([5]; pH 7.4, read-out: logD)",EC50 [7] [µM],IC50 [3] [nM],solubility kinetic at 24 h ([2]; supplement) [µM],IC50 (THLE-2 cells) [nM],Papp A→B (P-gp (MDR1)) [×10⁻⁶ cm/s]
Cc1cccnc1Nc1nc(-c2ccc(OC3CCOCC3)cn2)ns1 [Compound 3],84,7.3,19000,82,2.2,0.03,0.027,< 0.1,0.24,–,–,–,–,–,–
Cc1cccnc1Nc1nc(-c2cc(C#N)c(OC(C)C)cn2)ns1 [Compound 15],100,0.3,> 30000,84,2.3,1.37,–,–,0.71,2.3,–,–,–,–,–
"Cc1cccnc1Nc1nc(-c2ccc(C(=O)N(C)C)cn2)ns1 [Compound 18, N,N-Dimethyl-6-(5-((3-methylpyridin-2-yl)amino)-1,2,4-thiadiazol-3-yl)nicotinamide]",97,73.2,> 30000,94,1.7,0.06,0.062,–,0.09,1.7,0.087,–,–,–,–
"Cc1cccnc1Nc1nc(-c2ccc(OC3CCN(C4CC4)CC3(F)F)cn2)ns1 (stereo not shown) [Compound 20, 3-(5-((1-Cyclopropyl-3,3-difluoropiperidin-4-yl)oxy)pyridin-2-yl)-N-(3-methylpyridin-2-yl)-1,2,4-thiadiazol-5-amine]",52,–,–,32,2.8,0.24,0.236,–,0.3,2.8,–,> 30000,–,–,–
CC(=O)N(C)c1cccnc1Nc1nc(-c2cc(C(F)(F)F)c(OC(C)C)cn2)ns1 [Compound 48],–,10.8,26000,–,3.5,3.71,–,–,1.05,3.5,–,–,10.8,8300,6.9
CC(=O)N(C)c1cnc(Nc2nc(-c3ccc(OC(C)C)cn3)ns2)c(C)c1 [Compound 51],–,15,–,–,2.2,0.49,0.488,–,0.46,2.2,–,–,–,–,30.3
"CC(C)Oc1cnc(-c2nsc(Nc3ncccc3N3CCCC3=O)n2)cc1C(F)(F)F [Compound 52, 1-(2-((3-(5-Isopropoxy-4-(trifluoromethyl)pyridin-2-yl)-1,2,4-thiadiazol-5-yl)amino)pyridin-3-yl)pyrrolidin-2-one]",–,9.95,–,–,2.7,1.73,–,–,1.95,2.7,–,–,–,–,12.9
"CC(=O)N(C)c1cc(C(F)(F)F)cnc1Nc1nc(-c2cc(OC(C)C)ccn2)ns1 [Compound 55, N-(2-((3-(4-Isopropoxypyridin-2-yl)-1,2,4-thiadiazol-5-yl)amino)-5-(trifluoromethyl)pyridin-3-yl)-N-methylacetamide]",–,–,–,–,3,0.01,0.013,–,0.04,3,–,–,–,–,1.7
"CC(C)Oc1cccnc1-c1nsc(Nc2ncc(C(F)(F)F)cc2C(=O)N(C)C)n1 [Compound 58, 2-[[3-(3-Isopropoxy-2-pyridyl)-1,2,4-thiadiazol-5-yl]amino]-N,N-dimethyl-5-(trifluoromethyl)pyridine-3-carboxamide]",–,130,–,–,2.15,0.62,0.621,–,1.5,2.15,–,–,–,–,11.2
